Test results published in patent US7531537B2, “Benzofuran derivative” (Mitsubishi Tanabe Pharma Corporation, priority 2002, dated 2009).

Key:
[1] = biological target: activated blood coagulation factor X (FXa) (Homo sapiens, UniProt P00742); assay: FXa inhibitory effect; type: biochemical
distribution volume = conditions: in vivo

activated blood coagulation factor X (FXa), sequence (P00742 235-488 limits assumed): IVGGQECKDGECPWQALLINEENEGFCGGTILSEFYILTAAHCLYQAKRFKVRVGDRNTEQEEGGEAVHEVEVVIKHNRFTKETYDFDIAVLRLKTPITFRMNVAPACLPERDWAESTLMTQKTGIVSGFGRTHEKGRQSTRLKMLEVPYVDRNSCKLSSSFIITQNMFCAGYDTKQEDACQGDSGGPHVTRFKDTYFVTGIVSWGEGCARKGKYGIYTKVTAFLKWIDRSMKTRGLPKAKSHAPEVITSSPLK
activated blood coagulation factor X (FXa), sequence (P00742 41-179 partner limits assumed): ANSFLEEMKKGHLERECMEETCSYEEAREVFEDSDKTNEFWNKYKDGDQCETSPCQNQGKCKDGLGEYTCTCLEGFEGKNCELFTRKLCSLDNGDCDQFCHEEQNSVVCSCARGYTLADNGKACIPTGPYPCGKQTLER

In the case of `CN(C)C(=O)c1ccc2oc(C(=O)Nc3ccc(Cl)cn3)c(NC(=O)[C@H]3CC[C@H](N(C)C=O)CC3)c2c1` [trans-5-dimethylaminocarbonyl-3-[4-(N-formyl-N-methylamino)-cyclohexylcarbonylamino]-N-(5-chloropyridin-2-yl)-benzofuran-2-carboxamide], the IC50 [1] is reported as less than 100 nM and the distribution volume (distribution volume) is reported as 0.8 L/kg.
